From article PMC6150198, “Functional Characterization of a Hydroxyacid/Alcohol Hydroxycinnamoyl Transferase Produced by the Liverwort Marchantia emarginata” (Molecules : A Journal of Synthetic Chemistry and Natural …, 2017)

System: T1, MeHFT
T1 construct: ~71 kDa on gel), E. coli BL21(DE3), Ni-NTA; primers encode N-terminus MGAEEV and C-terminus EEAIKL; cDNA 1413 nt from transcriptome SRP078649
Test: HPLC of alkyl ferulate product, UV […] nm, Michaelis-Menten fit
Format: biochemical, Marchantia emarginata
Conditions: 0.1 M Tris-HCl pH 7.5, 40 °C, 10 min

| Structure (SMILES) | Km (acyl acceptor varied, 0.1 mM feruloyl-CoA) | Km (acyl donor varied, 0.1 mM 1-decanol) |
| --- | --- | --- |
| CCCCCCCCCCO [1-Decanol] | 65.5 ± 11.2 µM | – |
| COc1cc(/C=C/C(=O)SCCNC(=O)CCNC(=O)[C@H](O)C(C)(C)COP(=O)(O)OP(=O)(O)OC[C@H]2O[C@@H](n3cnc4c(N)ncnc43)[C@H](O)[C@@H]2OP(=O)(O)O)ccc1O [Feruloyl-CoA] | – | 79.4 ± 10.9 µM |
